Results published in patent publication US6814960B1, “Hydroxystilbene compounds used as microbicidal active substances” (Ciba Specialty Chemicals Corporation, priority 1998, dated 2004).

Assays:
Experiment in all cases: MIC in the agar diffusion test
Format in all cases: cell-based
[1] = test system: Candida albicans ATCC 10231; details: Mueller-Hinton agar, 24 hours at 37° C., (101), (103) solution in EtOH, others in DMSO
Source text: (§1) Determination of the Minimum Inhibiting Concentration (MIC) in the Agar Diffusion Test

[2] = test system: Pseudomonas aeruginosa CIP A-22; details: Mueller-Hinton agar, 24 hours at 37° C., solution in EtOH
Source text: as §1

[3] = test system: Escherichia coli NCTC 8196; details: Mueller-Hinton agar, 24 hours at 37° C., (101), (103) solution in EtOH, (102) in DMSO
Source text: as §1

[4] = test system: Corynebacterium xerosis ATCC 373; details: Mueller-Hinton agar, 24 hours at 37° C.; (103) solution in EtOH
Source text: as §1

[5] = test system: Staphylococcus aureus ATCC 9144; details: Mueller-Hinton agar, 24 hours at 37° C., (101), (103) solution in EtOH, others in DMSO
Source text: as §1

[6] = test system: Aspergillus niger ATCC 6275; details: Aspergillus niger, ATCC6275, 72 h; Sabouraud 4% glucose agar, 3 days at 28° C.; (101) solution in EtOH, others in DMSO; read-out: MIC A. niger
Source text: as §1

Compound: Oc1ccc(/C=C/c2cc(O)cc(O)c2)cc1 [Compound of formula (103)]
- MIC C. albicans [1]: 600 ppm
- MIC P. aeruginosa [2]: 600 ppm
- MIC E. coli [3]: 600 ppm
- MIC C. xerosis [4]: 100 ppm
- MIC S. aureus [5]: 600 ppm

Compound: Oc1cc(O)cc(C=Cc2ccccc2)c1 [Compound of formula (101), 3,5-dihydroxystilbene]
- MIC ([1]; Candida albicans, ATCC10231, read-out: MIC C. albicans): 100 µg/mL
- MIC ([2]; Pseudomonas aeruginosa, CIPA22, read-out: MIC P. aeruginosa): 100 µg/mL
- MIC ([3]; Escherichia coli, NCTC8196, read-out: MIC E. coli): 100 µg/mL
- MIC [6]: 100 µg/mL
- MIC ([5]; Staphylococcus aureus, ATCC9144, read-out: MIC S. aureus): 100 µg/mL
